# Measurements: patent US10975352B2, “Methods of enhancing cell survival of stem cells” (The Scripps Research Institute, priority 2008, dated 2021)
# Experiments:
# [1] = system: hESCs; test: ALP positive colony formation / low-density survival assay of dissociated hESCs on Matrigel; assay type: cell-based, human; conditions: for Activity (% ALP positive colony formation by hESCs): Ratio of ALP positive colonies vs. total initially seeded cells
# Method: Human ESC lines H1, HUES7 and HUES9 were cultured on irradiated MEF feeder cells in DMEM-F12 supplemented with 2 mM L-glutamine, lx nonessential amino acids, 20% serum replacement (Invitrogen) and 10 ng/ml basic Fibroblast growth factor (Invitrogen). Chemically-defined and feeder-free hESC culture was described previously (Yao, S. et al., Proc Natl Acad Sci USA 103 (18):6907-6912 (2006)). Briefly, hESCs were grown on Matrigel-coated tissue culture plates in N2B27-CDM (DMEM-F12 supplemented with 1×N2 supplements, lx B27 supplements, 2 mM L-glutamine, 0.11 mM 2-mercaptoethanol, lx nonessential amino acids, and 0.5 mg/ml BSA (fraction V)) and 20 ng/ml bFGF. Human ESCs were passaged every 5-6 days with 0.05% trypsin.
# For clonal survival assays, single hESCs were diluted to clonal density and plated onto 96-well Matrigel-coated plate. For low-density survival assays, 500 cells were plated onto 96-well Matrigel-coated plate. To visualize hESC colonies, cultures were fixed in 4% paraformaldehyde in PBS for 5 min, washed once in PBS, then stained for alkaline phosphatase activity as described in manufacturer's instructions. ALP positive colonies were counted on an inverted microscope.
# ALP detection kit and integrin antibodies were from Chemicon. AG825 (Erb2 inhibitor), AG1478 (EGFR inhibitor), PPP (IGFR1 inhibitor) were purchased from Calbiochem. Antibodies raised against the intracytoplasmic tail of E-cadherins (Transduction Laboratories, Lexington, Ky.) were used for immunoprecipitation. The antibody TS2/16 was from Pierce. Antibodies to the extracellular domain of E-cadherin molecule were from Zymed (Carlsbad). Antibodies against extracellular signal-regulated kinase/MAPK, EGFR1, ERB2, GADPH and phosphorylated form of AKT were from Cell Signaling. Mouse monoclonal anti-phosphotyrosine (4G-10 clone) was from Upstate Biotechnology. Ptn and Tzv were added to culture medium at 2 μM. […]
# [2] = system: hESCs; test: Cell death analysis of dissociated hESCs in suspension culture; assay type: cell-based, human
# Description: hESCs are known to be difficult in forming embryoid bodies (EBs) in suspension culture after single cell dissociation due to extensive cell death. Thus, we also tested whether Tzv or Ptn could promote survival of dissociated hESCs in suspension. […] Because cell aggregation is most often mediated through cell-cell adhesions and E-cadherin is the primary cell-cell adhesion molecule, as well as highly expressed in hESCs (Eastham, A. M. et al., Cancer Res 67 (23): 11254-11262 (2007)), we tested the effect of a specific E-cadherin blocking antibody on multicellular aggregate formation.
# The hESCs under different treatments were dissociated by trypsin and fixed by 4% paraformaldehyde. And the staining was carried out according to the manufacturer's instructions (MBL Laboratories, Watertown, Mass.). After staining, samples were analysed by flow cytometry using a FACS Calibur flow cytometer (BD).
# [3] = system: epithelial to mesenchymal transition/EMT; test: Induction of MET / inhibition of EMT; assay type: cell-based
# [4] = system: hESCs; test: Cell adhesion assay; assay type: cell-based, human
# Method: Cell adhesion assays were performed in 96-well microtiter plates coated with Matrigel. After trypsin, hESCs were resuspended in the chemically-defined media containing the desired compounds. Cells were then added to the microtiter wells and incubated for 3 h at 37° C. Unbound and loosely bound cells were removed by shaking and washing, and the remaining cells were then fixed immediately. The wells were washed 3 times with 200 μl of H2O, and attached cells were stained with Crystal Violet (Sigma). The absorbance of each well at 570 nm was then measured. For experiments with blocking antibodies, cells were pre-incubated with antibodies on ice for 30 min, and adhesion assays were performed in the presence of antibodies. Each sample was assayed independently for three times.
# [5] = system: hESCs; test: Karyotyping (G-banding) of long-term expanded hESCs; assay type: cell-based, human; conditions: more than 20 generations; chemically-defined medium
# Method: Teratoma formation experiments were performed by injecting 3-5 million hESCs (maintained in the presence of compounds Tvz or Ptn) under the kidney capsule of nude mice. After 4-5 weeks, all mice developed teratomas, which were removed and then immunohistologically analyzed by The Scripps Research Institute Research Histology Service and Animal Resources. Compounds treated cells were karyotyped by standard G-banding at the Children's Hospital Oakland, Cytogenetics Laboratory. No chromosomal abnormality was found in the 10 randomly picked nuclei.
# [6] = system: stem cells; test: Survival and anti-differentiation of stem cells ex vivo; assay type: cell-based; conditions: human and mouse embryonic, neural, skin, mesenchymal, hematopoietic, stromal and epithelial stem cells; contact immediately after isolation
# Description: In some embodiments, the invention provides methods of promoting survival and anti-differentiation in stem cells ex-vivo.
# [7] = system: growth factor receptors, AKT and ERK; test: Western blot of phosphorylation status in hESCs; assay type: cell-based, human
# Description: Interplay between physical/structural environment and growth factor plays a very important role in cell fate regulation (Comoglio, P. M., Boccaccio, C., & Trusolino, L., Curr Opin Cell Biol 15 (5):565-571 (2003)). To examine whether growth factors are involved in integrin-mediated hESC survival, we treated dissociated hESCs with Tzv or Ptn together with individual highly specific growth factor receptor inhibitors. […] Similarly inhibition of FGFR, IGFR, EGFR1 or Erb2 also greatly abolished Tzv-induced hESC survival in suspension culture.
# Phosphatidylinositol-3-kinase (PI-3K) signaling and MAPK/ERK are major regulators for hESC self-renewal (Armstrong, L. et al., Hum Mol Genet 15 (11): 1894-1913 (2006); Paling, N. R. et al., J Biol Chem 279 (46):48063-48070 (2004); Pyle, A. D., Lock, L. F., & Donovan, P. J., Nat Biotechnol 24 (3):344-350 (2006); Li, J. et al., Differentiation 75 (4):299-307 (2007)). Phosphorylation of ERK and AKT, a downstream effector of PI-3K, were increased upon treatment of dissociated hESCs with Ptn, and this increase was abolished by integrin blocking antibody (FIG. 4e,f). Moreover, activation of AKT and ERK by Ptn was blocked by inhibitors of FGFR, IGFR, EGFR or Erb2 (FIG. 4g and data not shown).
# [8] = system: β1 integrin; test: Activated β1 integrin (HUTS-21 binding; flow cytometry, immunostaining); assay type: cell-based, human; conditions: PMA 10 nM; immunostaining of active β1 integrins
# Description: To gain insights into the mechanism of β1 integrin regulation by Tzv and Ptn, we investigated whether the compounds' effect is due to changes of integrin expression. In contrast to E-cadherin, β1 integrin was not cleaved by trypsin. […] Thus, Tzv and Ptn are likely to affect cell adhesion by modulating integrin activity (FIG. 3 d,e). To examine the effects of compound treatment on the activity of β1 integrin, we used the monoclonal antibody HUTS-21, which specifically binds to the activated form of the 131 integrin (Luque, A. et al., J Biol Chem 271 (19):11067-11075 (1996)).
# To assess the expression of E-cadherin, activated integrin and SSEA4, dissociated cells (3×10^5) were washed with PBS and resuspended in PBS containing 2% goat serum. Cells were then incubated with the appropriate antibody for 1 h at 4° C., washed with the blocking solution, and labeled with FITC-conjugated secondary antibody for 30 min at 4° C. Cells were then washed and analyzed on a FACS Calibur flow cytometer.
Compound,Activity (% ALP positive colony formation by hESCs) [1],other results
CC(C)CCNS(=O)(=O)c1ccc(Nc2nccc(N3CCc4ccccc4C3)n2)cc1,3.2%,–
CC(C)CCNS(=O)(=O)c1ccc(Nc2nccc(N3CCCc4ccccc43)n2)cc1,3.4%,–
CC(C)CCNS(=O)(=O)c1ccc(Nc2nccc(N3CCc4ccccc43)n2)cc1,3.1%,–
CC(C)CCNS(=O)(=O)c1ccc(Nc2nccc(N3CCCc4cc(O)ccc43)n2)cc1,23.5%,–
O=C(NCC1CC1)c1ccc(Nc2nccc(N3CCCc4cc(O)ccc43)n2)cc1,2.9%,–
O=S(=O)(NC1CC1)c1ccc(Nc2nccc(N3CCCc4ccccc43)n2)cc1,3.1%,–
O=C(NCc1ccccc1)c1csc(Nc2ccncc2)n1,20.3%,–
COc1ccc2c(c1)CCCN2c1ccnc(Nc2ccc(S(=O)(=O)NCCC(C)C)cc2)n1,3.3%,–
O=S(=O)(NCC1CC1)c1ccc(Nc2nccc(N3CCc4ccccc43)n2)cc1,6.1%,–
"O=S(=O)(NCC1CC1)c1ccc(Nc2nccc(N3CCCc4cc(O)ccc43)n2)cc1 [Ptn, N-(cyclopropylmethyl)-4-(4-(6-hydroxy-3,4-dihydroquinolin-1(2H)-yl)pyrimidin-2-ylamino)benzenesulfonamide]",–,"survival of dissociated hESCs in adherent culture ([1]; adherent culture (e.g. Matrigel-coated plate)): promoted survival; survival of dissociated hESCs in suspension culture [2]: had no effect; MET induction and EMT inhibition [3]: can induce MET (the reverse of EMT) and inhibit EMT; adhesion of dissociated hESCs to Matrigel or laminin [4]: dramatically increased adhesion; adhesion of hESCs to gelatin or poly-lysine [4]: not affected; karyotype of hESCs serially passaged in compound-containing medium [5]: normal karyotype; survival and anti-differentiation of stem cells [6]: effective in promoting survival and anti-differentiation; phosphorylation of ERK and AKT ([7]; dissociated hESCs): increased; phosphorylation of growth factor receptor ([7]; hESCs treated for 2 h, DMSO control): significantly increased the phosphorylation"
O=S(=O)(NCC1CC1)c1ccc(Nc2nccc(N3CCCc4cc(O)ccc43)n2)cc1 [drawing 23],23.2%,–
CNS(=O)(=O)c1ccc(Nc2nccc(N3CCCc4cc(OC)ccc43)n2)cc1,3.1%,–
CC(C)CCNS(=O)(=O)c1cccc(Nc2nccc(N3CCCc4cc(O)ccc43)n2)c1,3.1%,–
O=S(=O)(NCC1CC1)c1ccc(Nc2nccc(N3Cc4ccccc4C3)n2)cc1,3.5%,–
O=C(NCc1ccccc1)c1csc(Nc2ccccc2)n1,4.5%,–
"CN(C)CCCn1cc(C2=C(c3c[nH]c4ccccc34)C(=O)NC2=O)c2ccccc21 [bisindolylmaleimide I, reference compound]",–,effect on increased cell adhesion induced by Ptn ([4]; PKC inhibitor in combination with Ptn): could antagonize the increased cell adhesion; effect on cell adhesion induced by Tzv ([4]; PKC inhibitor in combination with Tzv): had no effect
O=S(=O)(NC1CC1)c1ccc(Nc2nccc(N3CCc4ccccc43)n2)cc1,6.2%,–
COc1ccc(CNC(=O)c2csc(Nc3ccncn3)n2)cc1,5%,–
CNS(=O)(=O)c1ccc(Nc2nccc(N3CCCc4ccccc43)n2)cc1,3%,–
"CCCCCCCCCCCCCC(=O)O[C@@H]1[C@@H](C)[C@@]2(O)[C@@H](C=C(CO)C[C@]3(O)C(=O)C(C)=C[C@@H]23)[C@@H]2C(C)(C)[C@]12OC(C)=O [PMA, phorbol 12-myristate 13-acetate, reference compound]",–,integrin activation [8]: caused integrin activation; cell adhesion and colony formation of dissociated hESCs [4]: substantial increase in cell adhesion and colony formation
O=C(NCc1ccccc1)c1csc(Nc2ccncn2)n1 [drawing 17],24.1%,–
CNS(=O)(=O)c1ccc(Nc2nccc(N3CCc4ccccc4C3)n2)cc1,3.6%,–
O=S(=O)(NCC1CC1)c1ccc(Nc2nccc(N3CCCc4ccccc43)n2)cc1,5.2%,–
O=S(=O)(NCC1CC1)c1ccc(Nc2nccc(Nc3ccccc3)n2)cc1,3.3%,–
CNS(=O)(=O)c1ccc(Nc2nccc(N3CCCc4cc(O)ccc43)n2)cc1,5.7%,–
O=S(=O)(NC1CC1)c1ccc(Nc2nccc(N3CCCc4cc(O)ccc43)n2)cc1,8%,–
O=C(NCc1ccccc1)c1csc(Nc2ccccn2)n1,5.2%,–
